In US8415469B2, “Compounds and methods for kinase modulation, and indications therefor” (Plexxikon Inc., priority 2005, dated 2013):

Assays:
Assay type in all cases: biochemical
[1] = biological target: T1, Jak3 (Homo sapiens, UniProt P52333); assay: AlphaScreen kinase assay, Jak3; settings: read-out: IC50, activity toward kinase Jak3
T1 sequence (P52333 1-1124): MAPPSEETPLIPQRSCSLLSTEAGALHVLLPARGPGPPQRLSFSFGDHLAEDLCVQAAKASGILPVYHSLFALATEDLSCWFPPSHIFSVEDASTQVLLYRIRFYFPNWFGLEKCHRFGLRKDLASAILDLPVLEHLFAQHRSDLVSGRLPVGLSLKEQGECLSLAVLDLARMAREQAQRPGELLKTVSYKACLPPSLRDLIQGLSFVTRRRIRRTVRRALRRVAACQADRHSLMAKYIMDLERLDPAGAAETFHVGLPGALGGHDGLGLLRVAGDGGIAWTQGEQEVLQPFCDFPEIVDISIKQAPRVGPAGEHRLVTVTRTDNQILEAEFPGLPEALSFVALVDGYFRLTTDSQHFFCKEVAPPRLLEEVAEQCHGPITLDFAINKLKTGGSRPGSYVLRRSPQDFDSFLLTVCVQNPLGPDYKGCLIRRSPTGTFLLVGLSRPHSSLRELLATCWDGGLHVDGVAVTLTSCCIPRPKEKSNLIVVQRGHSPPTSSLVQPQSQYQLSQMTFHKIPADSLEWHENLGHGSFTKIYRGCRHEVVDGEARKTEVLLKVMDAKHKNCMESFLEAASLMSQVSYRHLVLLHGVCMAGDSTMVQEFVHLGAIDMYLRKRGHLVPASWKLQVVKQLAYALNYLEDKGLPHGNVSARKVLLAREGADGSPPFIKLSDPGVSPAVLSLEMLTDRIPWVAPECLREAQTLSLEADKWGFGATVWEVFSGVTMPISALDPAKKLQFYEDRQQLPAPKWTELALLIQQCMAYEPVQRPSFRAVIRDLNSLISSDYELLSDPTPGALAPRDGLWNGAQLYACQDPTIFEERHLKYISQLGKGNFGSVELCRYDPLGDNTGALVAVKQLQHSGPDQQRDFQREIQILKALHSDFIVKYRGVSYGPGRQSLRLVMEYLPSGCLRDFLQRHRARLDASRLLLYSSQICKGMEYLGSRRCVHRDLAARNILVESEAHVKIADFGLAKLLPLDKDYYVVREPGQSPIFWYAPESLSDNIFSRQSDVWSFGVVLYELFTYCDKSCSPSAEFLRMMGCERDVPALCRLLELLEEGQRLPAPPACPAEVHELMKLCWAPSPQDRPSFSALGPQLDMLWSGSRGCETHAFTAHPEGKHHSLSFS
From the text: AlphaScreen assay was used to screen additional kinases. The assay is similarly dependent on the phosphorylation of a peptide substrate. In this assay, an antibody that recognizes phosphorylated substrate is bound to an acceptor bead. The peptide substrate is attached to biotin, which binds to a donor head that contains streptavidin. Thus phosphorylated substrate is bound by antibody and streptavidin, bringing the donor and acceptor heads into close proximity when kinase is not inhibited. The donor produces singlet oxygen which results in emission from the acceptor when they are in close proximity. Conversely, when kinase is inhibited, the donor and acceptor beads are not associated and the emission from the acceptor is reduced.
AlphaScreen assays were done using compounds dissolved in DMSO to a concentration of 20 mM. The compounds were diluted accordingly to the desired final concentrations in each sample well, using 1:3 serial dilution for a total of 8 concentration points.

[2] = biological target: T2, Kdr (Homo sapiens, UniProt P35968); assay: Z'-Lyte FRET kinase assay (Invitrogen), Kdr; settings: read-out: IC50, activity toward kinase Kdr
T2 construct: purchased Invitrogen (assay run by Invitrogen)
T2 sequence (P35968 20-1356): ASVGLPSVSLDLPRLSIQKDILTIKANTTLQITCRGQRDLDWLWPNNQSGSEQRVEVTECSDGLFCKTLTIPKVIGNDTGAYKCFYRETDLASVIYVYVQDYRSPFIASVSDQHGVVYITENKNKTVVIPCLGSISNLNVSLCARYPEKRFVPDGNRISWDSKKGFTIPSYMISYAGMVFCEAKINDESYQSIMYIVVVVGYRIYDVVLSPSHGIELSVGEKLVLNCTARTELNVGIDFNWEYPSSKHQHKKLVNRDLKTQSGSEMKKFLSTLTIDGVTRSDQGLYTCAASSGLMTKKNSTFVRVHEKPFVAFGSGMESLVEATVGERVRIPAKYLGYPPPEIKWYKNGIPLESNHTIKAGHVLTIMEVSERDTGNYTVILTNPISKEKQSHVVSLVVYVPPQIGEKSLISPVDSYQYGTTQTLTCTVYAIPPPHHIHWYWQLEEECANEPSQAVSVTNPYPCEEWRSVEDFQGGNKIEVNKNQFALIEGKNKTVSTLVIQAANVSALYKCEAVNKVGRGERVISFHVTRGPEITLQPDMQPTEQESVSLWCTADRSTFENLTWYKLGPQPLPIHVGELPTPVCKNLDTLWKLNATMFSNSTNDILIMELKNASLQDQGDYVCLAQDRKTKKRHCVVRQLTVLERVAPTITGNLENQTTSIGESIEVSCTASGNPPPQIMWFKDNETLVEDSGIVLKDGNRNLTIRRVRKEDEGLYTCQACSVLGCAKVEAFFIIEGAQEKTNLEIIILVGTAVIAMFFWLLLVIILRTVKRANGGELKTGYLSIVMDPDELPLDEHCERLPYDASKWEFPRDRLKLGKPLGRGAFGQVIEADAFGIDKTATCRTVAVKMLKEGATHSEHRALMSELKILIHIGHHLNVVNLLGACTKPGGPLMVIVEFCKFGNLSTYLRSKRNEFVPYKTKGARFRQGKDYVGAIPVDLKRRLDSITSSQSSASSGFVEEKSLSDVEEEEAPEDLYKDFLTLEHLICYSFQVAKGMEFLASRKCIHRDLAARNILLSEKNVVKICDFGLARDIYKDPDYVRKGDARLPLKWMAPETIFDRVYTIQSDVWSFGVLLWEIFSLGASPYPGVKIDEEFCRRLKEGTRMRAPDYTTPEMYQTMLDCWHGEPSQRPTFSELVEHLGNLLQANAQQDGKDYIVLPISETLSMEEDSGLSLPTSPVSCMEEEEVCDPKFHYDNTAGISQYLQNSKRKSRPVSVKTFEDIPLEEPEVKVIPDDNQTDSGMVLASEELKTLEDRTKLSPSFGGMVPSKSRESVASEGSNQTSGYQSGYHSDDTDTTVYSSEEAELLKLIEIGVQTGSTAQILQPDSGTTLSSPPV

[3] = biological target: T3, MAP2K1 (Homo sapiens, UniProt Q02750); assay: Z'-Lyte FRET kinase assay (Invitrogen), MAP2K1; settings: read-out: IC50, activity toward kinase MAP2K1
T3 construct: purchased Invitrogen (assay run by Invitrogen)
T3 sequence (Q02750 whole entry): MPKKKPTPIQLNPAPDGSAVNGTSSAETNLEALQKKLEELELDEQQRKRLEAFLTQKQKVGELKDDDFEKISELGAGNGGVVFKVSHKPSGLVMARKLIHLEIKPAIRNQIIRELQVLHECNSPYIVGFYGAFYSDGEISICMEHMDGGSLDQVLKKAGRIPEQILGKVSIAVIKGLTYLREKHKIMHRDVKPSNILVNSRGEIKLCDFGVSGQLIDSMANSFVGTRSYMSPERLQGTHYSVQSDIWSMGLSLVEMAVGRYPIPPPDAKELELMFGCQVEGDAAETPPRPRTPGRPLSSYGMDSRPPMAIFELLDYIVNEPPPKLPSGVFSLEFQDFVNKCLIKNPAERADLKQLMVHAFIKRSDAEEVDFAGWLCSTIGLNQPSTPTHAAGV

[4] = biological target: T4, Stk6 (Homo sapiens, UniProt O14965); assay: Z'-Lyte FRET kinase assay (Invitrogen), Stk6; settings: read-out: IC50, activity toward kinase Stk6
T4 construct: purchased Invitrogen (Carlsbad, Calif.), screening service
T4 sequence (O14965 1-403): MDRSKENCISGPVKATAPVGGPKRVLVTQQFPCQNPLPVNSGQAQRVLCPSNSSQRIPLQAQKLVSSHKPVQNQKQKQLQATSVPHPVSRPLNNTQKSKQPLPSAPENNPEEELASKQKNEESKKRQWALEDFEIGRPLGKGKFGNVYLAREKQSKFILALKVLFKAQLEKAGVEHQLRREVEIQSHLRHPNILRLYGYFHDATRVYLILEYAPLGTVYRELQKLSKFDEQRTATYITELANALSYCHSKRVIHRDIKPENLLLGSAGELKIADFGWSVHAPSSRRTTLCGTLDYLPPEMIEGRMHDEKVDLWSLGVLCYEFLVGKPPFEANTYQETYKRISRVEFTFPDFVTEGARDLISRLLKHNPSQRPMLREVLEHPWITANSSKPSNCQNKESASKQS

[5] = biological target: T5, IKK beta (Homo sapiens, UniProt O14920); assay: AlphaScreen kinase assay, IKK beta; settings: read-out: IC50, activity toward kinase IKK beta
T5 sequence (O14920 1-756): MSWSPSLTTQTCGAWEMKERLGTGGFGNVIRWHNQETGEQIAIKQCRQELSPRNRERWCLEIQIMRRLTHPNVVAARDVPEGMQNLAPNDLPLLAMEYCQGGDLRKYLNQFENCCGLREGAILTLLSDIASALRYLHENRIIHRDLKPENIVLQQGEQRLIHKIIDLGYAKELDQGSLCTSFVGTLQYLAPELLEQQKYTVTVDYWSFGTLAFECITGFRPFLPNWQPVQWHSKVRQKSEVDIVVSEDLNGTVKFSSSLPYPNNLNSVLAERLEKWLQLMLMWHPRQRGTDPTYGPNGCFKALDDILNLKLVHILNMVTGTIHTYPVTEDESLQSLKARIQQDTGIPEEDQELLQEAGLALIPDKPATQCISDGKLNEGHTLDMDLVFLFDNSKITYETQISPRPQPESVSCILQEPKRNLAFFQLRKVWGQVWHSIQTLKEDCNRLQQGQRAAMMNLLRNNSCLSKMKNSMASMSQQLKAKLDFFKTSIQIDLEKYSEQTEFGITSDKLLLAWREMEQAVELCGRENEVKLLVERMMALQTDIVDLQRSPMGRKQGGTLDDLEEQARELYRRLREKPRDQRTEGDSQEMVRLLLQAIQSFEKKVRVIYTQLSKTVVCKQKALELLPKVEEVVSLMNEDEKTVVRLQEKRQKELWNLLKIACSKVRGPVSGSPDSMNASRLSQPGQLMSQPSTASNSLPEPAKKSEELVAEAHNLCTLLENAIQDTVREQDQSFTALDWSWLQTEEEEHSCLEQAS
Description: AlphaScreen assays were done using compounds dissolved in DMSO to a concentration of 20 mM. The compounds were diluted accordingly to the desired final concentrations in each sample well, using 1:3 serial dilution for a total of 8 concentration points. Plates were prepared such that each kinase reaction is 20 μl in 1× kinase buffer, 5% DMSO and 10 μM ATP. After incubation of the kinase reaction for 1 hour at room temperature, 5 μl of donor beads in stop buffer (50 mM EDTA in 1× kinase buffer) was added, the sample was mixed and incubated for 20 minutes at room temperature before adding 5 μl of acceptor beads in stop buffer. The samples were incubated for 60 minutes at room temperature and the signal per well was read on AlphaQuest reader.

[6] = biological target: T6, B-Raf V600E (Homo sapiens, UniProt P15056, V600E); assay: AlphaScreen kinase assay, B-Raf V600E; settings: read-out: IC50, activity toward kinase B-Raf V600E
T6 construct: P4254. pFastBacBD-CDC37 BRAF D437-K722-X, V600E; His6 with pFastBac HT leader (TEV site) (N); made in house; host or cells: Sf9 (baculovirus; chaperone CDC37 co-expressed)
T6 sequence (P15056 with tags, fused parts or gaps V600E): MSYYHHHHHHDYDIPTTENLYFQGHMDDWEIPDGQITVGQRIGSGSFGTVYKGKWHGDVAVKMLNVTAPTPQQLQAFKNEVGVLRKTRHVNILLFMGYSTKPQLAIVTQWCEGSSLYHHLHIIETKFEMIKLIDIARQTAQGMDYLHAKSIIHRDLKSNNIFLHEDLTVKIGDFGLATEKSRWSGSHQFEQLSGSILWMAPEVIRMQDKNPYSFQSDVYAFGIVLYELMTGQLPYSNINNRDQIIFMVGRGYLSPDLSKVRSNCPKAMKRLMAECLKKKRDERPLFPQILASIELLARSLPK

[7] = biological target: T7, Flt1 (Homo sapiens, UniProt P17948); assay: AlphaScreen kinase assay, Flt1; settings: read-out: IC50, activity toward kinase Flt1
T7 construct: P1826.pETN6 BI-PTP FLT1 M799-D1165-X WT; His6 (N); made in house; host or cells: E. coli (PTP1B co-expressed)
T7 sequence (P17948 with tags, fused parts or gaps): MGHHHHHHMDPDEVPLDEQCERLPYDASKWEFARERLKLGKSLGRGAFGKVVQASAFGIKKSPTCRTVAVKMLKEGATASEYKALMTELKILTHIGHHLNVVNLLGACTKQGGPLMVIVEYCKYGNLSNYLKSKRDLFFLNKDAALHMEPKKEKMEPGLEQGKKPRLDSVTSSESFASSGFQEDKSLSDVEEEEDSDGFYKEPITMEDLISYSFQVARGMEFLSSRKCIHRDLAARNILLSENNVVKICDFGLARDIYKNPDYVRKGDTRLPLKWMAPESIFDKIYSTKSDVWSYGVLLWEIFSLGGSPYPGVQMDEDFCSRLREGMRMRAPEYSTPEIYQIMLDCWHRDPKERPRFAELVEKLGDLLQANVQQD

[8] = biological target: T8, Kit (Homo sapiens, UniProt P10721); assay: AlphaScreen kinase assay, Kit; settings: read-out: IC50, activity toward kinase Kit
T8 construct: P1332.N6 BI PTP KIT M552-K948-X COD; His6 (N); made in house; host or cells: E. coli (PTP1B co-expressed)
T8 sequence (P10721 with tags, fused parts or gaps): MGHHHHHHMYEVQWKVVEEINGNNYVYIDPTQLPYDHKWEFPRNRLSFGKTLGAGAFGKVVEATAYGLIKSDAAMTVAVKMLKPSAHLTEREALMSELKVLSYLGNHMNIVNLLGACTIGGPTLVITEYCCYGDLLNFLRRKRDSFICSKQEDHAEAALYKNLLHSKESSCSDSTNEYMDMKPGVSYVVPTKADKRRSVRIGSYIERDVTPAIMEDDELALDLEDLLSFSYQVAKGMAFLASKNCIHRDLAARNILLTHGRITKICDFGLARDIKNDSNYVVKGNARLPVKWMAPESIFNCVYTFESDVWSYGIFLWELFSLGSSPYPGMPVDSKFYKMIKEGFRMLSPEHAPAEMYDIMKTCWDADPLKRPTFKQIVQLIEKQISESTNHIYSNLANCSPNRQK

[9] = biological target: Akt3 (Homo sapiens, UniProt Q9Y243); assay: AlphaScreen kinase assay, Akt3; settings: read-out: IC50, activity toward kinase Akt3
Akt3, sequence (Q9Y243 whole entry): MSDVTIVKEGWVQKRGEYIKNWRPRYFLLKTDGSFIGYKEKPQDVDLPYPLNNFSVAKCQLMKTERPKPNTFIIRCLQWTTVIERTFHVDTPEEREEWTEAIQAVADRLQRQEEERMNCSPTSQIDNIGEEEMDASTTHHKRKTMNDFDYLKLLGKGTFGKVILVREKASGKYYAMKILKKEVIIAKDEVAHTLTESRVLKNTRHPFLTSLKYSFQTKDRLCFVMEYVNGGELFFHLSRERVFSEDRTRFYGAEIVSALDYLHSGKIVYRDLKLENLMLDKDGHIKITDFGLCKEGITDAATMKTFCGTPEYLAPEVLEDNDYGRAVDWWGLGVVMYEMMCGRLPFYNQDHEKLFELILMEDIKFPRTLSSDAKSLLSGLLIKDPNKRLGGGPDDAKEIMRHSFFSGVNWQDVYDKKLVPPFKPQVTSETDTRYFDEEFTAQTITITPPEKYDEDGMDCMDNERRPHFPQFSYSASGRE
In short: (§1)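 Bead-proximity format: phosphopeptide links anti-phospho antibody acceptor beads to streptavidin donor beads via biotin tag. Compounds were serially diluted 1:3 (8 points) from 20 mM stocks in DMSO.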

[10] = biological target: T9, FGFR1 (Homo sapiens, UniProt P11362, C488A/C584S); assay: AlphaScreen kinase assay, FGFR1; settings: read-out: IC50, activity toward kinase FGFR
T9 construct: P1351.pET N6 BI-PTP FGFR A458-E765-X C488A, C584S; made in house; host or cells: E. coli (PTP1B co-expressed)
T9 sequence (P11362 458-765 C488A/C584S): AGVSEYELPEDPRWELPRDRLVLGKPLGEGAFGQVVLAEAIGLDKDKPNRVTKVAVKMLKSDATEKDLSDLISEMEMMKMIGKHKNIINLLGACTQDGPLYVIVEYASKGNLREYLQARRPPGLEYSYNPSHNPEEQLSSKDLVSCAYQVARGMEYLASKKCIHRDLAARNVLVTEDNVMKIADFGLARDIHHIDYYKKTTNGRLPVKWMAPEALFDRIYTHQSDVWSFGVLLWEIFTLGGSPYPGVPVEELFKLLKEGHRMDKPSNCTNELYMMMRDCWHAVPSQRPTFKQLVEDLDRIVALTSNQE

[11] = biological target: T10, Ret (Homo sapiens, UniProt P07949); assay: AlphaScreen kinase assay, Ret; settings: read-out: IC50, activity toward kinase Ret
T10 construct: P1378.pET-SF BI-PTP RET H661-R1012 HIS; made in house
T10 sequence (P07949 with tags, fused parts or gaps): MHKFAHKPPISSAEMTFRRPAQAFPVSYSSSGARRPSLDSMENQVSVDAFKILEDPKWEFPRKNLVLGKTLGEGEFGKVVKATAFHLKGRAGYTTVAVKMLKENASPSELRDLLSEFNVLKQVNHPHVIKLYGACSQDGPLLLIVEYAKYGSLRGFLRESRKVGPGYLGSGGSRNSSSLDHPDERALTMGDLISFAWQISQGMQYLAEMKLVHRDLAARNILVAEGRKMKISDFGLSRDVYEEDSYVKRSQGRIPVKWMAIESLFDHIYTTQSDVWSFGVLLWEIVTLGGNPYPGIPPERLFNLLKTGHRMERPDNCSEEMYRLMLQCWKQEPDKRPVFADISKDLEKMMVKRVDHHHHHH

[12] = biological target: T11, Jnk3 (Homo sapiens, UniProt P53779); assay: AlphaScreen kinase assay, Jnk3; settings: read-out: IC50, activity toward kinase Jnk3
T11 construct: purchased Upstate Biotechnology
T11 sequence (P53779 whole entry): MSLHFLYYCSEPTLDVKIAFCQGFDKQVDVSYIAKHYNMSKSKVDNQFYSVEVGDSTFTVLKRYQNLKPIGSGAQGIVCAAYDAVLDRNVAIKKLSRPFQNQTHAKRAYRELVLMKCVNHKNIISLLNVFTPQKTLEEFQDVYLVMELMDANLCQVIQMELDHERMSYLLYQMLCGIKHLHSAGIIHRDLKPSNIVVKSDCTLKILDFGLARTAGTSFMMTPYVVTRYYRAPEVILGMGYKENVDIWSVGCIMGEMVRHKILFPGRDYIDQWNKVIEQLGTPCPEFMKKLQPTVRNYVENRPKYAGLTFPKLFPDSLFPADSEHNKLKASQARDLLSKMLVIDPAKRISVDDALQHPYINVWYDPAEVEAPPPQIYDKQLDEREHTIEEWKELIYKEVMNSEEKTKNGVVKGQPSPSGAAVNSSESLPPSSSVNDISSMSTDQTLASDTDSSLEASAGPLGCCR

[13] = biological target: T12, Met (Homo sapiens, UniProt P08581); assay: AlphaScreen kinase assay, Met; settings: read-out: IC50, activity toward kinase Met
T12 construct: P1818.pETN6 BI-PTP MET G1056-G1364-X WT; His6 (N); made in house; host or cells: E. coli (PTP1B co-expressed)
T12 sequence (P08581 with tags, fused parts or gaps): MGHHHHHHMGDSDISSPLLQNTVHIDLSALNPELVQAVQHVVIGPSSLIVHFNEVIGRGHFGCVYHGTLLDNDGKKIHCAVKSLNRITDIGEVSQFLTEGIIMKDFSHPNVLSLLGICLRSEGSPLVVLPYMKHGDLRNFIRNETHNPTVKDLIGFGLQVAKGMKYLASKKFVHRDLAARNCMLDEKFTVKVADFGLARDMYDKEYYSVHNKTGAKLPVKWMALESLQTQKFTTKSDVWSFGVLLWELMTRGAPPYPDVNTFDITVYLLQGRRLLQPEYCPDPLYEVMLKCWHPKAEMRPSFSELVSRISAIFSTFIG
In short: as §1

Measured: IC50

CCCC(=O)Nc1ccc(F)c(C(O)c2c[nH]c3ncc(OC)cc23)c1F (centres unmarked) [Compound P-01367]
≤ 10 µM: [1]

C=Cc1ccc(-c2ccnc3[nH]ccc23)cc1 [Compound P-0098]
≤ 10 µM: [2] | [3] | [4] | [5]

NC(=O)c1cccc(-c2cnc3[nH]cc(Cc4ccccc4O)c3c2)c1 [Compound P-01385]
≤ 10 µM: [1]

OCc1cccc(-c2ccnc3[nH]cc(Sc4cccc(F)c4)c23)c1 [Compound P-0187]
≤ 10 µM: [6] | [4] | [1]

Clc1ccc(-c2ccnc3[nH]ccc23)cn1 [Compound P-0127]
≤ 10 µM: [7] | [2] | [8] | [4] | [9] | [5]

O=C(c1ccccc1F)c1c[nH]c2nccc(-c3ccccc3F)c12 [Compound P-0730]
≤ 10 µM: [6] | [10] | [2] | [11] | [1]

C(#Cc1ccnc2[nH]ccc12)c1ccccc1 [Compound P-0436]
≤ 10 µM: [4] | [9] | [5]

CS(=O)(=O)c1ccc(-c2c[nH]c3ncccc23)cc1 [Compound P-0177]
≤ 10 µM: [7] | [2] | [3] | [4] | [5]

O=C(O)/C=C/c1cccc(-c2ccnc3[nH]cc(C(=O)c4cc(F)ccc4F)c23)c1 [Compound P-0141]
≤ 10 µM: [6] | [2] | [11] | [1]

CN(C)c1ccc(Nc2cnc3[nH]ccc3c2)cc1 [Compound P-0962]
not listed: [1] | [3] | [4] | [10] | [11]
≤ 10 µM: all other assays above

Cc1ccc(-c2ccnc3[nH]ccc23)cc1N [Compound P-0111]
≤ 10 µM: [2] | [3] | [4] | [5]
